Test results: ChEMBL document CHEMBL1201862, “PubChem BioAssay data set” (2004)
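Method: 48-hour compound exposure of cells in 96-well plates, five concentrations, linear interpolation of endpoints. GI50 marks 50% less growth.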 Calls of active or inactive are those of the source. Rule as the data show it: active = GI50 up to about 1.1 µM and inactive = higher.

Tests used:
Assay in all cases: NCI-60 cell line screen, 48 h
EKVX = test system: EKVX
TK-10 = test system: TK-10
RPMI-8226 = test system: RPMI-8226
HCC 2998 = test system: HCC 2998
LOX IMVI = test system: LOX IMVI
OVCAR-5 = test system: OVCAR-5
HL-60 = test system: HL-60
OVCAR-8 = test system: OVCAR-8
UACC-62 = test system: UACC-62
NCI-H23 = test system: NCI-H23
SK-OV-3 = test system: SK-OV-3
786-0 = test system: 786-0
HT-29 = test system: HT-29
HOP-62 = test system: HOP-62
IGROV-1 = test system: IGROV-1
CAKI-1 = test system: CAKI-1
OVCAR-3 = test system: OVCAR-3
KM12 = test system: KM12
T47D = test system: T47D

Measured: GI50

CC[As](CC)SCC1OC(OC(C)=O)C(OC(C)=O)C(OC(C)=O)C1OC(C)=O (stereo not given)
inactive: EKVX 21.4 µM | TK-10 16.6 µM | RPMI-8226 6.58 µM | HCC 2998 17.5 µM | LOX IMVI 15.2 µM | OVCAR-5 18.3 µM | HL-60 3.16 µM | OVCAR-8 16 µM | UACC-62 13.9 µM | NCI-H23 13.5 µM | SK-OV-3 15.8 µM | 786-0 14.4 µM | HT-29 21.5 µM | HOP-62 20.8 µM | IGROV-1 18.3 µM | CAKI-1 2.84 µM | OVCAR-3 14.4 µM | KM12 19.5 µM

O=c1c2ccccc2[nH]c2ccc3c(Cl)n[nH]c3c12
inactive: EKVX 47.3 µM | TK-10 23.8 µM | RPMI-8226 39.7 µM | HCC 2998 35.5 µM | LOX IMVI 20.8 µM | OVCAR-5 41.1 µM | HL-60 40.1 µM | OVCAR-8 40.5 µM | UACC-62 35 µM | NCI-H23 35.2 µM | SK-OV-3 > 100 µM | 786-0 34.1 µM | HT-29 37.6 µM | HOP-62 29.1 µM | IGROV-1 35 µM | CAKI-1 23.7 µM | OVCAR-3 57.4 µM | KM12 32.9 µM

CC1CCN(C(C)C)P(=S)(Cc2ccccc2)O1 (stereo not given)
inactive: T47D 11.2 µM | EKVX 75.3 µM | TK-10 75 µM | RPMI-8226 99.8 µM | HCC 2998 83.9 µM | LOX IMVI > 100 µM | OVCAR-5 > 100 µM | OVCAR-8 > 100 µM | UACC-62 16.7 µM | NCI-H23 92.9 µM | SK-OV-3 > 100 µM | 786-0 > 100 µM | HT-29 > 100 µM | HOP-62 > 100 µM | IGROV-1 > 100 µM | CAKI-1 > 100 µM | OVCAR-3 34.4 µM | KM12 > 100 µM

CCN(CC)c1c(C(=O)/C=C/c2ccc(Cl)cc2)c(-c2ccccc2)nn(C)c1=O
inactive: EKVX 2.07 µM | TK-10 2.14 µM | RPMI-8226 2.25 µM | HCC 2998 1.85 µM | LOX IMVI 1.9 µM | OVCAR-5 1.74 µM | HL-60 1.19 µM | OVCAR-8 1.64 µM | UACC-62 1.71 µM | NCI-H23 1.68 µM | SK-OV-3 3.94 µM | 786-0 1.85 µM | HT-29 1.77 µM | HOP-62 2.12 µM | IGROV-1 2.03 µM | CAKI-1 3.56 µM | OVCAR-3 2.16 µM | KM12 1.92 µM

CC(=O)NNc1nc(C)c(C(=O)/C=C/c2ccc(N(C)C)cc2)s1
inactive: EKVX > 100 µM | TK-10 > 100 µM | RPMI-8226 > 100 µM | HCC 2998 > 100 µM | LOX IMVI > 100 µM | OVCAR-5 > 100 µM | HL-60 > 100 µM | OVCAR-8 > 100 µM | UACC-62 > 100 µM | NCI-H23 > 100 µM | SK-OV-3 > 100 µM | 786-0 > 100 µM | HT-29 > 100 µM | HOP-62 > 100 µM | IGROV-1 > 100 µM | CAKI-1 > 100 µM | OVCAR-3 > 100 µM | KM12 > 100 µM

COC(O)C(=O)c1c2c(cc3c1CC1(Cc4cc5c(cc4C1)CCC5)C3)CCC2 (stereo not given)
inactive: T47D 21.9 µM | EKVX 22.2 µM | TK-10 17.7 µM | RPMI-8226 8.02 µM | HCC 2998 23.6 µM | LOX IMVI 7.13 µM | OVCAR-5 18.2 µM | HL-60 23.2 µM | OVCAR-8 18.3 µM | NCI-H23 16.4 µM | SK-OV-3 17.4 µM | 786-0 14 µM | HT-29 9.33 µM | HOP-62 15.9 µM | IGROV-1 13 µM | CAKI-1 20.5 µM | OVCAR-3 15.6 µM

O=c1oc2c(O)c(O)c(O)c3c(=O)oc4c(O)c(O)cc1c4c23 [FLAVELLAGIC ACID]
inactive: EKVX > 100 µM | TK-10 > 100 µM | RPMI-8226 > 100 µM | HCC 2998 > 100 µM | LOX IMVI 18 µM | OVCAR-5 > 100 µM | HL-60 36.6 µM | OVCAR-8 71.4 µM | UACC-62 57.3 µM | NCI-H23 > 100 µM | SK-OV-3 > 100 µM | 786-0 62.8 µM | HT-29 39.5 µM | HOP-62 > 100 µM | IGROV-1 > 100 µM | CAKI-1 > 100 µM | OVCAR-3 61 µM | KM12 > 100 µM
